# Measured values as given in patent US8741934B2, “Inhibitors of ion channels” (Pfizer Limited, priority 2007, dated 2014).
# Biological target: T1, hSCN3A sodium channels (Homo sapiens, UniProt Q9NY46)
# T1 construct: expressed in transfected cells
# Assay: hSCN3A electrophysiology, Ionworks Quattro automated platform (Table C)
# Format: cell-based
# Conditions: for inhibition at 3 µM: read-out: SCN3A % INHIB HTS IWQ 3 μM; for inhibition at 10 µM: read-out: SCN3A % INHIB HTS IWQ 10 μM; for SCN3A INHIB INACT DRC EP IWQ EMAX: Emax of dose-response curve, inactivated state; for IC50: read-out: SCN3A IWQ IC-50
# Method: Human Embryonic Kidney (HEK) cells were transfected with an hSCN3A construct using lipofectamine reagent (Invitrogen), using standard techniques. […] Clones were screened for expression using the whole-cell voltage-clamp technique.
# HEK cells stably transfected with hSCN3A were maintained in DMEM medium supplemented with 10% heat-inactivated fetal bovine serum and 400 μg/ml G418 sulfate in an incubator at 37° C. with a humidified atmosphere of 10% CO2. […] For electrophysiological studies, cells were removed from the culture flask by brief trypsinization and replated at low density onto glass cover slips. Cells were typically used for electrophysiological experiments within 24 to 72 h after plating.
# Electrophysiological assays were also conducted using the Ionworks Quattro automated electrophysiological platform (Molecular Devices Corp) (Table C). Intracellular and extracellular solutions were as described above with the following changes, 100 μg/ml amphotericin was added to the intracellular solution to perforate the membrane and allow electrical access to the cells. hSCN3A cells were grown and harvested as for PatchXpress and cells were resuspended in extracellular solution at a concentration of 3-4×10^6 cells/ml. The onboard liquid handling facility of the Ionworks Quattro was used for dispensing cells and application of test compounds. A voltage protocol was then applied that comprised of a voltage step to fully inactivate the sodium channels, followed by a brief hyperpolarized recovery period to allow partial recovery from inactivation for unblocked sodium channels, followed by a test depolarized voltage step to assess magnitude of inhibition by test compound. Compound effect was determined based on current amplitude difference between the pre-compound addition and post-compound addition scans.
# T1 sequence (Q9NY46 whole entry): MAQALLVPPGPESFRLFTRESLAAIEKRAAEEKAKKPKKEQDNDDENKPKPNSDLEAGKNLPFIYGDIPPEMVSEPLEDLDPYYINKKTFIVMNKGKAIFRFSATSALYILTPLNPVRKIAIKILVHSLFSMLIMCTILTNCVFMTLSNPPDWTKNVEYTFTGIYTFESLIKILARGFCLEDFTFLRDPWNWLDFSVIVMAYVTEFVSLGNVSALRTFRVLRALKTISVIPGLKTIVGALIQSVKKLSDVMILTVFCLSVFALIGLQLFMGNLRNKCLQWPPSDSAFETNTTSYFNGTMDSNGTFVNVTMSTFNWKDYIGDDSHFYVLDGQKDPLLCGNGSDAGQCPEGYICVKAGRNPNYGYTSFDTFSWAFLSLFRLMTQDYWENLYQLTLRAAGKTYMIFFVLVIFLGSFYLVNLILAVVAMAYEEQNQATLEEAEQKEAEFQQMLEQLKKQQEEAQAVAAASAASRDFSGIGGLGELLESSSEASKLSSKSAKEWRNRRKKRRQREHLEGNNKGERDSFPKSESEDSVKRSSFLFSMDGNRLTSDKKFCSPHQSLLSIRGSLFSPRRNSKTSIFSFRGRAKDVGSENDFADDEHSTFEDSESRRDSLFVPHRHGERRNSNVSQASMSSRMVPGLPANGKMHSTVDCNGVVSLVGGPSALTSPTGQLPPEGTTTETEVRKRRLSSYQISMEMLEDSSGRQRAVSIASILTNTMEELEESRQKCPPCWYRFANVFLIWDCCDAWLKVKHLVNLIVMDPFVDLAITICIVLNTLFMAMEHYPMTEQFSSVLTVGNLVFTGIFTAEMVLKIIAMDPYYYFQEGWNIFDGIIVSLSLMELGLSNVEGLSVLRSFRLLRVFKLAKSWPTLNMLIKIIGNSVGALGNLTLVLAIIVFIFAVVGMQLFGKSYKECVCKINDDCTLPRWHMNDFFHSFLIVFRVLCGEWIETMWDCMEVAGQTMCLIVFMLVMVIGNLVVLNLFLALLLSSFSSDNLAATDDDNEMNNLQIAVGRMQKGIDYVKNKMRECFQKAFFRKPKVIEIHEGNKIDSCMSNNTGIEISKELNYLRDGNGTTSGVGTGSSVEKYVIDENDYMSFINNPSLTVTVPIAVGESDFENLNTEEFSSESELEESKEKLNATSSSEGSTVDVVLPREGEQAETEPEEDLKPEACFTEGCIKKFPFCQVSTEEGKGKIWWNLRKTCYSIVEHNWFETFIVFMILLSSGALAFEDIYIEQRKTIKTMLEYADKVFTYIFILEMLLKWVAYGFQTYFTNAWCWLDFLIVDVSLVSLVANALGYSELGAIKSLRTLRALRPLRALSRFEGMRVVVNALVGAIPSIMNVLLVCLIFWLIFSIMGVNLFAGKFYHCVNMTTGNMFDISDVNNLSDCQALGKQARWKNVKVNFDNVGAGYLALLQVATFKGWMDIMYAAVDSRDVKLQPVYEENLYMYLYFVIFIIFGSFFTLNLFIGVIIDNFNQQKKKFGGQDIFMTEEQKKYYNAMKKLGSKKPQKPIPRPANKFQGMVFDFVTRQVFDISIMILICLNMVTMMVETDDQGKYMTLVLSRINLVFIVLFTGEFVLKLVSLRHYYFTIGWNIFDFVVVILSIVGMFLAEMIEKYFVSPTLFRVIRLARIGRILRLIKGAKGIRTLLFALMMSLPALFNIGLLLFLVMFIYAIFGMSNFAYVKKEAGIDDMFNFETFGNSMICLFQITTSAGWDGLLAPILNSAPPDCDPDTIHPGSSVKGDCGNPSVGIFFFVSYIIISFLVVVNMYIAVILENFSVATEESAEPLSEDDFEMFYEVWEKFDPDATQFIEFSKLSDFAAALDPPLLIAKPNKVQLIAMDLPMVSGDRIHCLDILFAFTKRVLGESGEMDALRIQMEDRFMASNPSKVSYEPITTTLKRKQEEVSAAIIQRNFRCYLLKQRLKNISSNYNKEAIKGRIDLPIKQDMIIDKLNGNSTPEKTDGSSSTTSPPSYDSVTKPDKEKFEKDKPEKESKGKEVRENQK
SMILES,SCN3A % INHIB HTS IWQ 3 μM (3 μM compound),SCN3A % INHIB HTS IWQ 10 μM (10 μM compound),inhibition at 3 µM (3 μM compound),inhibition at 10 µM (10 μM compound),SCN3A INHIB INACT DRC EP IWQ EMAX,IC50
Cc1cccc(CC2CCCCN2C(=O)c2ccc(S(=O)(=O)Nc3nccs3)cc2)n1 (stereo not drawn) [Example 242],13.78%,8.48%,–,–,–,–
"COc1cccc(CCNC(=O)c2ccc(S(=O)(=O)Nc3nccs3)cc2)c1 [Example 166, N-[2-(3-methoxyphenyl)ethyl]-4-[(1,3-thiazol-2-ylamino)sulfonyl]benzamide]",–,–,30.6%,36.3%,–,–
"COc1ccc(C2CC(CO)CN2C(=O)c2ccc(S(=O)(=O)Nc3nccs3)cc2)cc1 (stereo not drawn) [Example 280, 4-{[4-(Hydroxymethyl)-2-(4-methoxyphenyl)pyrrolidin-1-yl]carbonyl}-N-1,3-thiazol-2-yl-benzenesulfonamide]",–,–,13.2%,17%,–,–
"O=C(c1ccc(S(=O)(=O)Nc2nccs2)cc1)N1CCC(CCc2ccccc2)C1 (stereo not drawn) [Example 227, 4-{[3-(2-Phenylethyl)pyrrolidin-1-yl]carbonyl}-N-1,3-thiazol-2-yl-benzenesulfonamide]",–,–,29.3%,45.8%,53,20.3 µM
"N#Cc1cccc(OCC2CCCN(C(=O)c3ccc(S(=O)(=O)Nc4nccs4)cc3)C2)c1 (stereo not drawn) [Example 278, 4-({3-[(3-Cyanophenoxy)methyl]piperidin-1-yl}carbonyl)-N-1,3-thiazol-2-yl-benzenesulfonamide]",–,–,25.4%,30%,–,–
"O=C(c1ccc(S(=O)(=O)Nc2nccs2)cc1)N1CCCC1c1ccccc1 (stereo not drawn) [Example 205, 4-[(2-Phenylpyrrolidin-1-yl)carbonyl]-N-1,3-thiazol-2-yl-benzenesulfonamide]",–,–,11.3%,27.3%,–,–
"O=C(c1ccc(S(=O)(=O)Nc2nccs2)cc1)N1CCC(Cc2ccccc2)C1 (stereo not drawn) [Example 282, 4-[(3-Benzylpyrrolidin-1-yl)carbonyl]-N-1,3-thiazol-2-yl-benzenesulfonamide]",–,–,29.1%,11.4%,–,–
"CC(C)(NC(=O)c1ccc(S(=O)(=O)Nc2nccs2)cc1)c1cccc(Cl)c1 [Example 127, N-[1-(3-chlorophenyl)-1-methylethyl]-4-[(1,3-thiazol-2-ylamino)sulfonyl]benzamide]",–,–,28.9%,28.7%,–,–
"O=C(c1ccc(S(=O)(=O)Nc2nccs2)cc1)N(Cc1ccccc1)[C@@H](CO)c1ccccc1 [Example 208, N-benzyl-N-[(1R)-2-hydroxy-1-phenylethyl]-4-[(1,3-thiazol-2-yl-amino)sulfonyl]benzamide]",–,–,3.57%,-14.2%,–,–
"Cc1cccc(CNC(=O)c2ccc(S(=O)(=O)Nc3nccs3)cc2)c1C [Example 82, N-(2,3-dimethylbenzyl)-4-[(1,3-thiazol-2-ylamino)sulfonyl]benzamide]",–,–,29.7%,63%,–,–
"O=C(NCc1c(F)cccc1C(F)(F)F)c1ccc(S(=O)(=O)Nc2nccs2)cc1 [Example 84, N-[2-fluoro-6-(trifluoromethyl)benzyl]-4-[(1,3-thiazol-2-ylamino)sulfonyl]benzamide]",–,–,17.7%,22.2%,–,–
"COc1ccc(CC2(NC(=O)c3ccc(S(=O)(=O)Nc4nccs4)cc3)CC2)cc1 [Example 162, N-[1-(4-methoxybenzyl)cyclopropyl]-4-[(1,3-thiazol-2-ylamino)sulfonyl]benzamide]",–,–,28%,13.7%,–,–
"O=C(c1ccc(S(=O)(=O)Nc2nccs2)cc1)N1CCOC(CN2Cc3ccccc3C2=O)C1 (stereo not drawn) [Example 210, 4-({2-[(1-Oxo-1,3-dihydro-2H-isoindol-2-yl)methyl]morpholin-4-yl}carbonyl)-N-1,3-thiazol-2-ylbenzenesulfonamide]",–,–,4.03%,11.9%,–,–
"COc1ccc(CC2CCCN(C(=O)c3ccc(S(=O)(=O)Nc4nccs4)cc3)C2)cc1 (stereo not drawn) [Example 270, 4-{[3-(4-Methoxybenzyl)piperidin-1-yl]carbonyl}-N-1,3-thiazol-2-yl-benzenesulfonamide]",–,–,19.2%,45.7%,53.7,27.7 µM
"O=C(c1ccc(S(=O)(=O)Nc2nccs2)cc1)N1CCCCCC1c1ccccn1 (stereo not drawn) [Example 255, 4-[(2-Pyridin-2-ylazepan-1-yl)carbonyl]-N-1,3-thiazol-2-yl-benzenesulfonamide]",–,–,4.16%,6.56%,–,–
"O=C(NCCc1ccccc1F)c1ccc(S(=O)(=O)Nc2nccs2)cc1 [Example 77, N-[2-(2-fluorophenyl)ethyl]-4-[(1,3-thiazol-2-ylamino)sulfonyl]benzamide]",–,–,16.6%,27.9%,–,–

SMILES,SCN3A % INHIB HTS IWQ 3 μM (3 μM compound),SCN3A % INHIB HTS IWQ 10 μM (10 μM compound),inhibition at 3 µM (3 μM compound),inhibition at 10 µM (10 μM compound),SCN3A INHIB INACT DRC EP IWQ EMAX,IC50
"Cc1ccnc(CC2CCCN2C(=O)c2ccc(S(=O)(=O)Nc3nccs3)cc2)c1 (stereo not drawn) [Example 248, 4-({2-[(4-Methylpyridin-2-yl)methyl]pyrrolidin-1-yl}carbonyl)-N-1,3-thiazol-2-yl-benzenesulfonamide]",–,–,20.1%,14.7%,–,–
"O=C(c1ccc(S(=O)(=O)Nc2nccs2)cc1)N1CCCC[C@@H]1c1ccccn1 [Example 261, 4-{[(2R)-2-pyridin-2-yl-piperidin-1-yl]carbonyl}-N-1,3-thiazol-2-yl-benzenesulfonamide]",–,–,6.02%,10.4%,–,–
"O=C(NCC1(c2ccccc2)CC1)c1ccc(S(=O)(=O)Nc2nccs2)cc1 [Example 153, N-[(1-phenylcyclopropyl)methyl]-4-[(1,3-thiazol-2-ylamino)sulfonyl]benzamide]",–,–,15.9%,32.9%,–,–
"Cc1cc(C)nc(CC2CCCCCN2C(=O)c2ccc(S(=O)(=O)Nc3nccs3)cc2)c1 (stereo not drawn) [Example 246, 4-({2-[(4,6-Dimethylpyridin-2-yl)methyl]azepan-1-yl}carbonyl)-N-1,3-thiazol-2-yl-benzenesulfonamide]",–,–,-0.31%,-1.47%,–,–
"O=C(c1ccc(S(=O)(=O)Nc2nccs2)cc1)N(Cc1ccccc1)[C@@H]1CCCC[C@@H]1CO [Example 226, N-benzyl-N-[(1R,2S)-2-(hydroxymethyl)cyclohexyl]-4-[(1,3-thiazol-2-ylamino)sulfonyl]benzamide]",–,–,-1.52%,13.9%,–,–
"CCC(NC(=O)c1ccc(S(=O)(=O)Nc2nccs2)cc1)c1ccc(F)cc1 (stereo not drawn) [Example 142, N-[1-(4-fluorophenyl)propyl]-4-[(1,3-thiazol-2-ylamino)sulfonyl]benzamide]",–,–,30.4%,31.5%,–,–
"CC(Cc1ccc(F)c(F)c1)NC(=O)c1ccc(S(=O)(=O)Nc2nccs2)cc1 (stereo not drawn) [Example 151, N-[2-(3,4-difluorophenyl)-1-methylethyl]-4-[(1,3-thiazol-2-ylamino)sulfonyl]benzamide]",–,–,17.4%,12.7%,–,–
"CN(CCC(O)c1ccccc1)C(=O)c1ccc(S(=O)(=O)Nc2nccs2)cc1 (stereo not drawn) [Example 235, N-(3-hydroxy-3-phenylpropyl)-N-methyl-4-[(1,3-thiazol-2-yl-amino)sulfonyl]benzamide]",–,–,21.4%,-2.43%,–,–
"CN(C(=O)c1ccc(S(=O)(=O)Nc2nccs2)cc1)C(Cc1ccccc1)c1ccccc1 (stereo not drawn) [Example 251, N-(1,2-diphenylethyl)-N-methyl-4-[(1,3-thiazol-2-ylamino)sulfonyl]benzamide]",–,–,19.9%,0.8%,–,–
"O=C(c1ccc(S(=O)(=O)Nc2nccs2)cc1)N1CCCC(Cc2ncccn2)C1 (stereo not drawn) [Example 237, 4-{[3-(Pyrimidin-2-ylmethyl)piperidin-1-yl]carbonyl}-N-1,3-thiazol-2-yl-benzenesulfonamide]",–,–,24.7%,17.6%,–,–
"Cc1ccccc1O[C@@H]1CCN(C(=O)c2ccc(S(=O)(=O)Nc3nccs3)cc2)C1 [Example 204, 4-{[(3R)-3-(2-methylphenoxy)pyrrolidin-1-yl]carbonyl}-N-1,3-thiazol-2-yl-benzenesulfonamide]",–,–,18.1%,16.2%,–,–
"Cc1cccc(C2(C)CN(C(=O)c3ccc(S(=O)(=O)Nc4nccs4)cc3)CCO2)c1 (stereo not drawn) [Example 189, 4-{[2-Methyl-2-(3-methylphenyl)morpholin-4-yl]carbonyl}-N-1,3-thiazol-2-yl-benzenesulfonamide]",–,–,25.3%,21%,–,–
"O=C(c1ccc(S(=O)(=O)Nc2nccs2)cc1)N1CCCCC1Cc1ccccn1 (stereo not drawn) [Example 244, 4-{[2-(Pyridin-2-ylmethyl)piperidin-1-yl]carbonyl}-N-1,3-thiazol-2-yl-benzenesulfonamide]",–,–,14.2%,21.9%,–,–
"O=C(NC(CO)c1ccccc1Cl)c1ccc(S(=O)(=O)Nc2nccs2)cc1 (stereo not drawn) [Example 56, N-[1-(2-chlorophenyl)-2-hydroxyethyl]-4-[(1,3-thiazol-2-ylamino)sulfonyl]benzamide]",–,–,3.23%,2.53%,–,–
"O=C(NC1(c2cccc(Cl)c2)CC1)c1ccc(S(=O)(=O)Nc2nccs2)cc1 [Example 135, N-[1-(3-chlorophenyl)cyclopropyl]-4-[(1,3-thiazol-2-ylamino)sulfonyl]benzamide]",–,–,27.4%,30.1%,–,–
